Test results taken from US9446071B2, “Antimicrobially active compositions based on zinc compound, glycerine monoalkyl ether and antioxidant” (L'AIR LIQUIDE SOCIETE ANONYME POUR L'ETUDE ET …, priority 2012, dated 2016).

System: Streptococcus mutans ATCC: 25175
Test: Minimal inhibitory concentration (method C) of mouthwash formulations
Assay type: cell-based
Conditions: pH 4
Method: The minimal inhibitory concentration which is required by a preparation in order to inhibit the growth of a defined microorganism is tested.
5 ml of the given product test solution (optionally doubly concentrated) is mixed with 5 ml of doubly concentrated CSS broth. The tubes are then inoculated with 0.1 ml of a test suspension containing 10^8 microbes.
The assessment is performed after 48 hr incubation at 36° C.±1° C. (C. albicans 30° C.±1° C.).
Further, the action of combinations according to the invention against the caries-causing organism Streptococcus mutans in the mouthwash formulations shown in Table 10 was tested.
The pH of the formulations was adjusted to pH 4.

Molecule	Activity against Streptococcus mutans
PEG-40 macrogol glycerol hydroxystearate [Mghs]	no intrinsic activity
O=C([O-])CC(O)(CC(=O)[O-])C(=O)[O-].O=C([O-])CC(O)(CC(=O)[O-])C(=O)[O-].[Zn+2].[Zn+2].[Zn+2] [TZC, trizinc citrate]	not sufficient
